From the supplement of paper PMC11451515

Columns and labels:
[1] = tested on: NOMO1; assay: AUC of viability dose-response curve (% viability x log10 dose units); higher = less sensitive; details: 48 h
Outline: (§1)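 Seeding of medium-adapted leukemia cells was at 500 or 1000 cells/well in 1536-well plates, followed by 48 h at 37°C with library compounds in DMSO at 11 threefold doses from 47 μM to 0.79 nM. CellTiter-Glo One luminescence was normalised per plate to DMSO and cell-free wells and fitted as a four-parameter log-logistic function of log10 dose. Area under the curve was integrated by trapezoidal rule, with curves exceeding full viability scaled and curves failing quality control removed.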

[2] = tested on: SEM cells; assay: as above; details: 48 h
Outline: as §1

[3] = tested on: P12-Ichikawa; assay: as above; details: 48 h
Outline: as §1

[4] = tested on: SEM cells; assay: cell viability relative to DMSO control; higher = less cytotoxic; details: 48 h
Outline: (§2)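 Viability, reported as a per-plate percentage of DMSO wells with cell-free wells as background, came from CellTiter-Glo One luminescence. Reading took place after 48 h at 37°C. Before that, NOMO1 or SEM (500 cells/well) or P12-Ichikawa (1000 cells/well) leukemia cells, adapted for at least four passages in each medium, were seeded in 1536-well plates (5 μl) and pin-dosed with library compounds in DMSO, 47 μM to 0.79 nM over 11 threefold points.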

[5] = tested on: P12-Ichikawa; assay: as above; details: HPLM + 10% dialyzed FBS, 48 h
Outline: as §2

[6] = RPMI 5 mM glucose + 10% dialyzed FBS

COc1ccc(-c2ccc3cc(C(=O)O)ccc3c2)cc1C12CC3CC(CC(C3)C1)C2
AUC of viability dose-response curve ([1]; HPLM + 10% dialyzed FBS): 436 | AUC of viability dose-response curve ([1]; RPMI 5 mM glucose + 10% FBS): 441 | AUC of viability dose-response curve [1, 6]: 387 | AUC of viability dose-response curve ([2]; HPLM + 10% dialyzed FBS): 459 | AUC of viability dose-response curve ([2]; RPMI 5 mM glucose + 10% FBS): 468 | AUC of viability dose-response curve [2, 6]: 459 | AUC of viability dose-response curve ([3]; HPLM + 10% dialyzed FBS): 465 | AUC of viability dose-response curve ([3]; RPMI 5 mM glucose + 10% FBS): 447 | AUC of viability dose-response curve [3, 6]: 458

FC(F)(F)c1ccc(CNc2ccc(Cc3c[nH]c4ncc(Cl)cc34)cn2)cn1
AUC of viability dose-response curve ([2]; HPLM + 10% dialyzed FBS): 317 | AUC of viability dose-response curve ([2]; RPMI 5 mM glucose + 10% FBS): 245 | AUC of viability dose-response curve [2, 6]: 314 | AUC of viability dose-response curve ([3]; HPLM + 10% dialyzed FBS): 268 | AUC of viability dose-response curve ([3]; RPMI 5 mM glucose + 10% FBS): 367 | AUC of viability dose-response curve [3, 6]: 370

CCc1cc(-c2n[nH]c(C)c2-c2ccc3c(c2)OCCO3)c(O)cc1O
cell viability ([4]; HPLM + 10% dialyzed FBS, 0.000781 µM): 98% | cell viability ([4]; HPLM + 10% dialyzed FBS, 0.00234 µM): 123% | cell viability ([4]; HPLM + 10% dialyzed FBS, 0.00702 µM): 137% | cell viability ([4]; HPLM + 10% dialyzed FBS, 0.0211 µM): 117% | cell viability ([4]; HPLM + 10% dialyzed FBS, 0.0632 µM): 128% | cell viability ([4]; HPLM + 10% dialyzed FBS, 0.19 µM): 124% | cell viability ([4]; HPLM + 10% dialyzed FBS, 0.569 µM): 126% | cell viability ([4]; HPLM + 10% dialyzed FBS, 1.71 µM): 111% | cell viability ([4]; HPLM + 10% dialyzed FBS, 5.12 µM): 111% | cell viability ([4]; HPLM + 10% dialyzed FBS, 15.4 µM): 32.9% | cell viability ([4]; HPLM + 10% dialyzed FBS, 46.1 µM): 36.2% | cell viability ([4]; RPMI 5 mM glucose + 10% FBS, 0.000781 µM): 106% | cell viability ([4]; RPMI 5 mM glucose + 10% FBS, 0.00234 µM): 123% | cell viability ([4]; RPMI 5 mM glucose + 10% FBS, 0.00702 µM): 115% | cell viability ([4]; RPMI 5 mM glucose + 10% FBS, 0.0211 µM): 127% | cell viability ([4]; RPMI 5 mM glucose + 10% FBS, 0.0632 µM): 134% | cell viability ([4]; RPMI 5 mM glucose + 10% FBS, 0.19 µM): 140% | cell viability ([4]; RPMI 5 mM glucose + 10% FBS, 0.569 µM): 120% | cell viability ([4]; RPMI 5 mM glucose + 10% FBS, 1.71 µM): 115% | cell viability ([4]; RPMI 5 mM glucose + 10% FBS, 5.12 µM): 102% | cell viability ([4]; RPMI 5 mM glucose + 10% FBS, 15.4 µM): 31.4% | cell viability ([4]; RPMI 5 mM glucose + 10% FBS, 46.1 µM): 25.2% | cell viability ([5]; 0.000781 µM): 115% | cell viability ([5]; 0.00234 µM): 133% | cell viability ([5]; 0.00702 µM): 119% | cell viability ([5]; 0.0211 µM): 132% | cell viability ([5]; 0.0632 µM): 132% | cell viability ([5]; 0.19 µM): 135% | cell viability ([5]; 0.569 µM): 131% | cell viability ([5]; 1.71 µM): 135% | cell viability ([5]; 5.12 µM): 131% | cell viability ([5]; 15.4 µM): 96.7% | cell viability ([5]; 46.1 µM): 74.7% | AUC of viability dose-response curve ([1]; HPLM + 10% dialyzed FBS): 450 | AUC of viability dose-response curve ([1]; RPMI 5 mM glucose + 10% FBS): 447 | AUC of viability dose-response curve [1, 6]: 448 | AUC of viability dose-response curve ([2]; HPLM + 10% dialyzed FBS): 422 | AUC of viability dose-response curve ([2]; RPMI 5 mM glucose + 10% FBS): 414 | AUC of viability dose-response curve [2, 6]: 418 | AUC of viability dose-response curve ([3]; HPLM + 10% dialyzed FBS): 455 | AUC of viability dose-response curve ([3]; RPMI 5 mM glucose + 10% FBS): 435 | AUC of viability dose-response curve [3, 6]: 444
